Here are results for 28 compounds from US9085555B2, “Complement pathway modulators and uses thereof” (priority 2011, dated 2015).

The target of this assay is Factor D (Homo sapiens (Human), UniProt P00746). Kind of assay: biochemical. To be noted: read-out: IC50. The format is biochemical.

In general, IC50 refers to the concentration that inhibits the measured activity by half.

Factor D, sequence (P00746 26-253): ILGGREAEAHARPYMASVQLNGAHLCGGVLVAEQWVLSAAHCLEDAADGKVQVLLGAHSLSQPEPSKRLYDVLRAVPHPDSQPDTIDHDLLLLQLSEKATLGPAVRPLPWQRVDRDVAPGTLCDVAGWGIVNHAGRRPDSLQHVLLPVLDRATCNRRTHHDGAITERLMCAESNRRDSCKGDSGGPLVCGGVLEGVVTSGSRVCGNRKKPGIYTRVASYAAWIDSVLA

As to `NC(=O)n1cc(NC(=O)N2CC[C@@H](O)[C@H]2C(=O)NCc2cccc(Cl)c2F)c2ccccc21` [Example 213, (2S,3R)-3-Hydroxy-pyrrolidine-1,2-dicarboxylic acid 1-[(1-carbamoyl-1H-indol-3-yl)-amide] 2-(3-chloro-2-fluoro-benzylamide)], the IC50 stood at 12 nM.
Next, `COC[C@@]12C[C@@H]1N(C(=O)Nc1cn(C(N)=O)c3ccccc13)[C@H](C(=O)NCc1cccc(Cl)c1F)C2` [Example 214, (1S,3S,5R)-5-Methoxymethyl-2-aza-bicyclo[3.1.0]hexane-2,3-dicarboxylic acid 2-[(1-carbamoyl-1H-indol-3-yl)-amide] 3-(3-chloro-2-fluoro-benzylamide)]: 1570 nM.
Next, `NC(=O)n1cc(NC(=O)N2C[C@H](F)C[C@H]2C(=O)NCc2cncc(F)c2)c2ccccc21` [Example 215, (2S,4R)-4-Fluoro-pyrrolidine-1,2-dicarboxylic acid 1-[(1-carbamoyl-1H-indol-3-yl)-amide] 2-[(5-fluoro-pyridin-3-ylmethyl)-amide]]: 386 nM; `COc1ccc2c(NC(=O)N3C4CC4C[C@H]3C(=O)NCc3cccc(Cl)c3F)cn(C(N)=O)c2c1` (stereo partly drawn) [Example 216, (1R,3S,5R)-2-Aza-bicyclo[3.1.0]hexane-2,3-dicarboxylic acid 2-[(1-carbamoyl-6-methoxy-1H-indol-3-yl)-amide] 3-(3-chloro-2-fluoro-benzylamide)]: 65 nM; `NC(=O)n1cc(NC(=O)N2[C@@H]3C[C@@H]3C[C@H]2C(=O)N[C@H](CO)c2cccc(Br)c2)c2ccccc21` [Example 217, (1R,3S,5R)-2-Azabicyclo[3.1.0]hexane-2,3-dicarboxylic acid 3-{[(S)-1-(3-bromo-phenyl)-2-hydroxy-ethyl]-amide} 2-[(1-carbamoyl-1H-indol-3-yl)-amide]]: 41 nM.
As for `COC(=O)c1cccc(NC(=O)[C@@H]2CCCN2C(=O)Nc2cn(C(N)=O)c3ccccc23)c1` [Example 219, 3-{[(S)-1-(1-Carbamoyl-1H-indol-3-ylcarbamoyl)-pyrrolidine-2-carbonyl]-amino}-benzoic acid methyl ester], the figure is 1850 nM; as for `NC(=O)n1cc(NC(=O)N2CCCC[C@H]2C(=O)NCc2cccc(Cl)c2F)c2ccccc21` [Example 220, (S)-Piperidine-1,2-dicarboxylic acid 1-[(1-carbamoyl-1H-indol-3-yl)-amide] 2-(3-chloro-2-fluoro-benzylamide)], 233 nM.
With `CC(=O)NC[C@@]1(F)C[C@@H](C(=O)NCc2cccc(Cl)c2F)N(C(=O)Nc2cn(C(N)=O)c3ccccc23)C1` [Example 221, (2S,4S)-4-(Acetylamino-methyl)-4-fluoro-pyrrolidine-1,2-dicarboxylic acid 1-[(1-carbamoyl-1H-indol-3-yl)-amide] 2-(3-chloro-2-fluoro-benzylamide)], the IC50 stood at 23 nM.
Turning to `NC(=O)n1cc(NC(=O)N2C[C@H](F)C[C@H]2C(=O)NCc2cccc(C(F)(F)F)c2F)c2ccccc21` [Example 222, (2S,4R)-4-Fluoro-pyrrolidine-1,2-dicarboxylic acid 1-[(1-carbamoyl-1H-indol-3-yl)-amide] 2-(2-fluoro-3-trifluoromethyl-benzylamide)], the IC50 stood at 137 nM.
As for `NC(=O)n1cc(NC(=O)N2[C@@H]3C[C@@H]3C[C@H]2C(=O)N[C@H](CCO)c2cccc(Cl)c2F)c2ccccc21` [Example 223, (1R,3S,5R)-2-Azabicyclo[3.1.0]hexane-2,3-dicarboxylic acid 2-[(1-carbamoyl-1H-indol-3-yl)-amide] 3-{[(R)-1-(3-chloro-2-fluoro-phenyl)-3-hydroxy-propyl]-amide}], the figure is 12 nM; as for `COc1ccc(CNC(=O)[C@@H]2SCCN2C(=O)Nc2cn(C(N)=O)c3ccccc23)c(F)c1F` [Example 225, (S)-Thiazolidine-2,3-dicarboxylic acid 3-[(1-carbamoyl-1H-indol-3-yl)-amide] 2-(2,3-difluoro-4-methoxy-benzylamide)], 350 nM.
As for `NC(=O)n1cc(NC(=O)N2[C@@H]3C[C@@H]3C[C@H]2C(=O)NCc2cccnc2)c2ccccc21` [Example 226, (1R,3S,5R)-2Azabicyclo[3.1.0]hexane-2,3-dicarboxylic acid 2-[(1-carbamoyl-1H-indol-3-yl)amide] 3-[(pyridin-3-ylmethyl)-amide]], the figure is 417 nM; as for `C[C@H]1CCN(C(=O)Nc2cn(C(N)=O)c3ccccc23)[C@@H]1C(=O)Nc1cccc(OC(F)(F)F)c1` [Example 227, (2S,3S)-3-Methyl-pyrrolidine-1,2-dicarboxylic acid 1-[(1-carbamoyl-1H-indol-3-yl)-amide] 2-[(3-trifluoromethoxy-phenyl)-amide]], 800 nM.
As for `NC(=O)n1cc(NC(=O)N2C3CC3C[C@H]2C(=O)NCc2cncc(Cl)c2)c2ccccc21` (stereo partly drawn) [Example 228, (1R,3S,5R)-2-Aza-bicyclo[3.1.0]hexane-2,3-dicarboxylic acid 2-[(1-carbamoyl-1H-indol-3-yl)-amide] 3-[(5-chloro-pyridin-3-ylmethyl)-amide]], the figure is 100 nM.
As to `C[C@@]1(F)C[C@@H](C(=O)N[C@H](CCO)c2cccc(Cl)c2F)N(C(=O)Nc2cn(C(N)=O)c3ccccc23)C1` [Example 229, (2S,4R)-4-Fluoro-4-methyl-pyrrolidine-1,2-dicarboxylic acid 1-[(1-carbamoyl-1H-indol-3-yl)-amide] 2-{[(R)-1-(3-chloro-2-fluoro-phenyl)-3-hydroxy-propyl]-amide}], the IC50 was determined as 29 nM.
As for `NC(=O)n1cc(NC(=O)N2C[C@H](F)C[C@H]2C(=O)NCc2ccncc2F)c2ccccc21` [Example 230, (2S,4R)-4-Fluoro-pyrrolidine-1,2-dicarboxylic acid 1-[(1-carbamoyl-1H-indol-3-yl)-amide] 2-[(3-fluoro-pyridin-4-ylmethyl)-amide]], the figure is 2550 nM; as for `COC[C@@H](NC(=O)[C@@H]1[C@@H]2C[C@@H]2CN1C(=O)Nc1cn(C(N)=O)c2ccccc12)c1cccc(Cl)c1F` [Example 231, (1R,2S,5S)-3-Aza-bicyclo[3.1.0]hexane-2,3-dicarboxylic acid 3-[(1-carbamoyl-1H-indol-3-yl)-amide] 2-{[(S)-1-(3-chloro-2-fluoro-phenyl)-2-methoxy-ethyl]-amide}], 103 nM; as for `NC(=O)n1cc(NC(=O)N2C[C@H](F)C[C@H]2C(=O)NCc2ccnc(C(F)(F)F)c2F)c2ccccc21` [Example 232, (2S,4R)-4-Fluoro-pyrrolidine-1,2-dicarboxylic acid 1-[(1-carbamoyl-1H-indol-3-yl)-amide] 2-[(3-fluoro-2-trifluoromethyl-pyridin-4-ylmethyl)-amide]], 989 nM.
Next, `NC(=O)n1cc(NC(=O)N2CCC[C@H]2C(=O)Nc2cccc(S(N)(=O)=O)c2)c2ccccc21` [Example 233, (S)-Pyrrolidine-1,2-dicarboxylic acid 1-[(1-carbamoyl-1H-indol-3-yl)-amide] 2-[(3-sulfamoyl-phenyl)-amide]]: 850 nM.
Next, `COc1cc(F)c(F)c(CNC(=O)[C@@H]2SCCN2C(=O)Nc2cn(C(N)=O)c3ccccc23)c1` [Example 235, (S)-Thiazolidine-2,3-dicarboxylic acid 3-[(1-carbamoyl-1H-indol-3-yl)-amide] 2-(2,3-difluoro-5-methoxy-benzylamide)]: 80 nM; `COC[C@@H](NC(=O)[C@@H]1C[C@H]2C[C@H]2N1C(=O)Nc1cn(C(N)=O)c2ccccc12)c1cccc(Cl)c1F` [Example 236, (1R,3S,5R)-2-Aza-bicyclo[3.1.0]hexane-2,3-dicarboxylic acid 2-[(1-carbamoyl-1H-indol-3-yl)-amide] 3-{[(S)-1-(3-chloro-2-fluoro-phenyl)-2-methoxy-ethyl]-amide}]: 8 nM.
Consider `NC(=O)n1cc(NC(=O)N2C[C@H](F)C[C@H]2C(=O)NCc2cncc(Cl)c2)c2ccccc21` [Example 237, (2S,4R)-4-Fluoro-pyrrolidine-1,2-dicarboxylic acid 1-[(1-carbamoyl-1H-indol-3-yl)-amide] 2-[(5-chloro-pyridin-3-ylmethyl)-amide]], for which the IC50 was 70 nM.
Consider `CCc1cccc(NC(=O)[C@@H]2CCCN2C(=O)Nc2cn(C(N)=O)c3ccccc23)n1` [Example 238, (S)-Pyrrolidine-1,2-dicarboxylic acid 1-[(1-carbamoyl-1H-indol-3-yl)-amide] 2-[(6-ethyl-pyridin-2-yl)-amide]], for which the IC50 was determined as 650 nM.
Next, `C[C@@]1(F)C[C@@H](C(=O)N[C@H](CO)c2cccc(Cl)c2F)N(C(=O)Nc2cn(C(N)=O)c3ccccc23)C1` [Example 239, (2S,4R)-4-Fluoro-4-methyl-pyrrolidine-1,2-dicarboxylic acid 1-[(1-carbamoyl-1H-indol-3-yl)-amide] 2-{[(S)-1-(3-chloro-2-fluoro-phenyl)-2-hydroxy-ethyl]-amide}]: 52 nM; `CNC(=O)c1cc(Cl)c(F)c(CNC(=O)[C@@H]2C[C@@H](F)CN2C(=O)Nc2cn(C(N)=O)c3ccccc23)c1` [Example 240, (2S,4R)-4-Fluoro-pyrrolidine-1,2-dicarboxylic acid 1-[(1-carbamoyl-1H-indol-3-yl)-amide] 2-(3-chloro-2-fluoro-5-methylcarbamoyl-benzylamide)]: 141 nM.
Next, `NC(=O)n1cc(NC(=O)N2C[C@](F)(CF)C[C@H]2C(=O)NCc2cccc(Cl)c2F)c2ccccc21` [Example 241, (2S,4S)-4-Fluoro-4-fluoromethyl-pyrrolidine-1,2-dicarboxylic acid 1-[(1-carbamoyl-1H-indol-3-yl)-amide] 2-(3-chloro-2-fluoro-benzylamide)]: 250 nM; `NC(=O)n1cc(NC(=O)N2C3CC3C[C@H]2C(=O)NCc2ncccc2F)c2ccccc21` (stereo partly shown) [Example 242]: 200 nM.
For `NC(=O)n1cc(NC(=O)N2C[C@@](F)(CN3CCOCC3)C[C@H]2C(=O)NCc2cccc(Cl)c2F)c2ccccc21` [Example 243, (2S,4S)-4-Fluoro-4-morpholin-4-ylmethyl-pyrrolidine-1,2-dicarboxylic acid 1-[(1-carbamoyl-1H-indol-3-yl)-amide] 2-(3-chloro-2-fluoro-benzylamide)], the IC50 was 200 nM.
